Laboratory results: US8318947B2, “Comestible compositions comprising high potency savory flavorants, and processes for producing them” (Senomyx, Inc., priority 2006, dated 2012)

Legend:
[1] = test system: human subjects, savory taste; assay: Human taste test of low sodium tomato juice; format: in vivo; conditions: 3 μM cpd; 400 mg Na/8 oz tomato juice
Description: Human taste tests were conducted in order to evaluate the ability of the compounds of the invention to enhance the savory flavor of low sodium tomato juice (which naturally comprises some monosodium glutamate).
The final tomato juice samples for taste testing were prepared so as to comprise 90% (by volume) pre-made low sodium tomato juice stock (pH 4.2, 80˜100 mg Na/8 oz, 16 mM of naturally occurring MSG), 5% (by volume) of stock solutions formulated to produce selected final levels of sodium of final juice, and 5% (by volume) of a stock solution of the compound of the invention. Selected oxalamide compounds of the invention were dissolved in LSB (low sodium phosphate buffer), to provide a stock solution at 20 times the desired final concentration in the final tomato juice. The desired final sodium concentration of the final tomato juice was most experiments 73.6 mM (400 mg sodium in 8 oz. of juice), therefore a stock solution of NaCl was made at 1.48 M NaCl. The pH for the stock solutions was adjusted to 4.2 using a 1 M citric acid solution, and the stock solutions were sonicated to ensure the additive compounds were completely dissolved. […]
Scores were averaged across panelists and sessions, and evaluated using a 2-way ANOVA (factors: panelists and samples) and Duncan's multiple comparison test (alpha=0.05) to determine significant differences in intensity ratings.

[2] = test system: human panelists, savory taste; assay: Savory taste test with trained human panel (difference from reference); format: in vivo
Description: General Panelist Selection: Basic screening of sensory taste testers: Potential panelists were tested for their abilities to rank and rate intensities of solutions representing the five basic tastes. Panelists ranked and rated intensity of five different concentrations of each of the five following compounds: sucrose (sweet), sodium chloride (salty), citric acid (sour), caffeine (bitter), and monosodium glutamate (savory). In order to be selected for participation in testing, panelists needed to correctly rank and rate samples for intensity, with a reasonable number of errors.
Preliminary Taste Tests: The panelists selected in the above procedure were deemed qualified for performing Preliminary Taste Testing procedures. The preliminary taste tests are used to evaluate new compounds for intensity of basic tastes and off-tastes. A small group of panelists (n=5) taste approximately 5 concentrations of the compound (range typically between 1-100 μM, in half-log cycles, e.g., 1, 3, 10, 30, and 100 μM) in water and in a solution of 12 mM MSG to evaluate enhancement. Panelists rate the five basic tastes (sweet, salty, sour, bitter, and savory) as well as off-tastes (such as chemical, metallic, sulfur) on a labeled magnitude scale. Samples are served in 10 mL portions at room temperature. The purpose of the test is to determine the highest concentration at which there is no objectionable off-taste, and determine if obvious savory taste or enhancement of savory taste exists at any of the concentrations tested.
Trained Panelist Selection: A trained expert panel was used to further evaluate compounds that had been tested with the preliminary taste test.
Panelists for the trained panel were selected from the larger group of qualifying taste panelists. Panelists were further trained on savory taste by ranking and rating experiments using MSG and IMP combinations. Panelists completed a series of ranking, rating, and difference from reference tests with savory solutions. In ranking and rating experiments, panelists evaluated easy MSG concentrations (0, 6, 18, 36 mM) and more difficult MSG concentrations (3, 6, 12, 18 mM MSG) in water.
Compound testing with Trained Panel: Compounds tested by the trained panel were evaluated in difference from reference experiments. […] Test samples were solutions with varying amounts of MSG, IMP, and the compound. Typically, each session compares the reference sample to numerous test samples. […] Compounds were tested against the reference in samples with and without 12 mM MSG. All samples were presented in 10 ml volumes at room temperature. Two sessions were completed for each compound tested to evaluate panel reproducibility.

COc1cc(C)ccc1CNC(=O)C(=O)NCCc1ccc(C)cn1 [Example 30, N^1-(2-methoxy-4-methylbenzyl)-N^2-(2-(5-methylpyridin-2-yl)ethyl)oxalamide]
Enhancement of the savory taste of 16 mM glutamate (naturally existing) in low sodium tomato juice [1]: by 1.8 to 1.9-fold
melting point: 133.5 to 134 °C
Taste Data: cpd concentration as strong as 12 mM MSG ([2]; compound alone, without MSG): 0.3 μM cpd as strong as
Taste Data: cpd concentration at which 12 mM MSG + cpd is as strong as 12 mM MSG + 100 μM IMP ([2]; with 12 mM MSG, reference 12 mM MSG + 100 μM IMP): 12 mM MSG + 0.3 μM cpd as
